Earlier results on 3 molecules are cited in paper PMC7113672 (Antiviral Research, 2014).

Series [1] relates to influenza A/WSN/1933 (H1N1) virus.
The subject of series [2] is other cysteine proteases such as the coronaviral main protease, cathepsins B, K, L, and S, and papain.
Another series deals with SARS-CoV. Particulars: in vivo.

The structures appear in SMILES notation. pEC50: −log10 of the molar value.

Regarding `Sc1ncnc2nc[nH]c12` [6MP, 6-Mercaptopurine], the selectivity index in series [1] is 4. For the same molecule, in series [1] (read-out: EC50, protective effect against influenza A/WSN/1933 (H1N1) virus), the pEC50 was 4.58. Moreover, in series [2], the “inhibition of other cysteine proteases” value is “do not inhibit”.

Consider `Nc1nc2nc[nH]c2c(=S)[nH]1` [6TG, 6-Thioguanine], for which the “inhibition of other cysteine proteases” value in series [2] is reported as “do not inhibit”.

On to `COc1c(C)c2c(c(O)c1C/C=C(\C)CCC(=O)O)C(=O)OC2` [Mycophenolic acid], for which the “effect of combination on replication of MERS-CoV” value in the series with MERS-CoV was “synergistically inhibit”. The pEC50 in the series with MERS-CoV (read-out: EC50, inhibition of MERS-CoV replication) is 6.57. The “efficacy against SARS-CoV” value with SARS-CoV was “ineffective”.
